Assay results reported in patent US9518050B2, “Cyclohexyl and quinuclidinyl carbamate derivatives having β2 adrenergic agonist and M3 muscarinic antagonist activity” (priority 2012, dated 2016).
Read-outs that look alike come from different tables or passages of the source.

What was measured:
[1] = target: T1, human muscarinic M3 receptor (Homo sapiens, UniProt P20309); assay: Human muscarinic M3 receptor binding assay ([3H]-NMS, CHO-K1 cell membranes)
T1 construct: purchased Perkin Elmer; host or cells: CHO-K1 cells (membranes)
Description: Test 2: Human Muscarinic M1, M2, M3, M4 and M5 Receptors Binding Assays
The study of binding to human muscarinic M1, M2, M3, M4 and M5 receptors was performed using commercial membranes (Perkin Elmer) prepared from CHO-K1 cells. Radioligand binding experiments were conducted in 96 polypropylene well plates in a total volume of 200 μl. All reagents were dissolved in assay binding buffer (PBS with calcium and magnesium, SIGMA), except compounds that were dissolved in DMSO 100%. Non-specific binding (NSB) was measured in the presence of 1 μM atropine. [3H]-NMS was used as the radioligand at a concentration of 1 nM for M2, M3 and M5 and 0.3 nM for M1 and M4. [3H]-NMS and antagonists were incubated with membranes that express human muscarinic receptors M1, M2, M3, M4 and M5 at concentrations of 8.1, 10, 4.9, 4.5 and 4.9 μg/well, respectively.
After an incubation period of two hours with gentle shaking, 150 μl of the reaction mix were transferred to 96 GF/C filter plates (Millipore), previously treated with wash buffer (Tris 50 mM; NaCl 100 mM; pH:7.4), containing 0.05% PEI (Sigma) during one hour. Bound and free [3H]-NMS were separated by rapid vacuum filtration in a manifold from Millipore and washed four times with ice cold wash buffer. After drying 30 min, 30 μl of OPTIPHASE Supermix were added to each well and radioactivity quantified using a Microbeta microplate scintillation counter.
The affinity of each test compound to the receptors was determined by using ten different concentrations ran in duplicate. IC50s were calculated using Activity Base software from IDBS and the four parameters-log equation.

[2] = target: T2, human adrenergic beta2 receptor (Homo sapiens, UniProt P07550); assay: Human adrenergic β2 receptor binding assay (3H-CGP12177, Sf9 cell membranes)
T2 construct: purchased Perkin Elmer; host or cells: Sf9 cells (overexpressed; membranes)
Description: Typically said beta2-adrenergic binding assay comprises: • a) providing a membrane suspension comprising Sf9 cells in an assay buffer • b) incubating with 3H-CGP12177 in plates previously treated with assay buffer containing a coating agent • c) measuring binding of test compound in the presence of propanolol • d) maintaining incubation • e) terminating the binding reactions • f) determining the affinity of the test compound for the receptor by repeating steps a) to e) using multiple different test compound concentrations. • g) calculating an IC50 using the four parameters-log equation.
Test 1: Human Adrenergic β1 and β2 Receptor Binding Assays
The study of binding to human adrenergic beta1 and beta2 receptors was performed using commercial membranes prepared from Sf9 cells where they are overexpressed (Perkin Elmer). The membrane suspensions (16 μg/well for beta1 and 5 μg/well for beta2) in assay buffer (75 mM Tris/HCl with 12.5 mM MgCl2 and 2 mM EDTA pH=7.4) were incubated with 0.14 or 0.6 nM of 3H-CGP12177 (Amersham) for beta 1 and beta 2 receptors respectively in a final volume of 250 μl, in GFC Multiscreen 96 well plates (Millipore) previously treated with assay buffer containing 0.3% PEI (Sigma). Non specific binding was measured in the presence of 1 μM propanolol. Incubation was maintained for 60 minutes at room temperature and with gentle shaking. The binding reactions were terminated by filtration and washing with 2.5 volumes of Tris/HCl 50 mM pH=7.4. The affinity of each test compound to the receptor was determined by using ten different concentrations ran in duplicate. IC50s were calculated using Activity Base software from IDBS and the four parameters-log equation.

[3] = 1 nM [3H]-NMS, CHO-K1 membranes 4.9 μg/well, two hours incubation, read-out: Binding, IC50, nM M3
[4] = 0.6 nM 3H-CGP12177, Sf9 membranes 5 μg/well, 60 min room temperature, read-out: Binding, IC50, nM β2

T1 sequence (P20309 whole entry): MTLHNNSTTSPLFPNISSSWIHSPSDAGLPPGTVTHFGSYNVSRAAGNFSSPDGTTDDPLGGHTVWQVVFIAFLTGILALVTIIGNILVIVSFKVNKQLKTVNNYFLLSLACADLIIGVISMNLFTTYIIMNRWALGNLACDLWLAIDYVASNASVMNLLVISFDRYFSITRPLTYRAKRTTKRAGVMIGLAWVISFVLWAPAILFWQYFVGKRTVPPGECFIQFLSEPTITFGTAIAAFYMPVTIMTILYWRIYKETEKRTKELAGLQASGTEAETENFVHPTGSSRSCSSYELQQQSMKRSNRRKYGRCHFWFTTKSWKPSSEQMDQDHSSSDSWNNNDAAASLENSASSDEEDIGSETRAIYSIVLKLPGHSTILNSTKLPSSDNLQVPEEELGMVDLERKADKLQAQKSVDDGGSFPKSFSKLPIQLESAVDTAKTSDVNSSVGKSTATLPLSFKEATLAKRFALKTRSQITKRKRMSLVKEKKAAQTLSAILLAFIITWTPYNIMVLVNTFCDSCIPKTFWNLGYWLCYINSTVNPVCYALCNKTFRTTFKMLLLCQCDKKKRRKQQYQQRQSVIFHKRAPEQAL

| Compound | IC50 [1, 3] [nM] | IC50 [2, 4] [nM] | IC50 [1] [nM] | IC50 [2] [nM] |
| --- | --- | --- | --- | --- |
| trans-4-[methyl(3-phenylpropyl)amino]cyclohexyl[4-(4-{[4-({[(2R)-2-hydroxy-2-(8-hydroxy-2-oxo-1,2-dihydroquinolin-5-yl)ethyl]amino}methyl)phenyl]amino}-4-oxobutyl)biphenyl-2-yl]carbamate dihydrofluoride [Example 40] | 0.78 | 2 | – | – |
| (3R)-1-azabicyclo[2.2.2]oct-3-yl(4-{4-[6-({[(2R)-2-hydroxy-2-(5-hydroxy-3-oxo-3,4-dihydro-2H-1,4-benzoxazin-8-yl)ethyl]amino}methyl)-2-oxo-1,3-benzoxazol-3(2H)-yl]butyl}biphenyl-2-yl)carbamate dihydrofluoride [Example 25] | 0.14 | 1.5 | – | – |
| O=C(Nc1cc(CCCCOc2ccc(CNC[C@H](O)c3ccc(O)c4[nH]c(=O)ccc34)cc2)ccc1-c1ccccc1)O[C@H]1CN2CCC1CC2 [Example 10, (3R)-1-azabicyclo[2.2.2]oct-3-yl(4-{4-[4-({[(2R)-2-hydroxy-2-(8-hydroxy-2-oxo-1,2-dihydroquinolin-5-yl)ethyl]amino}methyl)phenoxy]butyl}biphenyl-2-yl)carbamate] | – | – | 0.57 | 69 |
| (3R)-1-azabicyclo[2.2.2]oct-3-yl(4-{3-[4-(2-{[(2R)-2-hydroxy-2-(8-hydroxy-2-oxo-1,2-dihydroquinolin-5-yl)ethyl]amino}ethyl)phenoxy]propyl}biphenyl-2-yl)carbamate dihydrofluoride [Example 17] | 0.5 | 19 | – | – |
| (3R)-1-azabicyclo[2.2.2]oct-3-yl(4-{3-[({[2-chloro-4-({[(2R)-2-hydroxy-2-(8-hydroxy-2-oxo-1,2-dihydroquinolin-5-yl)ethyl]amino}methyl)-5-methoxyphenyl]amino}carbonyl)oxy]propyl}biphenyl-2-yl)carbamate dihydrofluoride [Example 14] | 0.13 | 10 | – | – |
| O=C(Nc1cc(CCCCn2nc3ccc(CNC[C@H](O)c4ccc(O)c5[nH]c(=O)ccc45)cc3n2)ccc1-c1ccccc1)O[C@H]1CN2CCC1CC2 [Example 19, (3R)-1-azabicyclo[2.2.2]oct-3-yl(4-{4-[5-({[(2R)-2-hydroxy-2-(8-hydroxy-2-oxo-1,2-dihydroquinolin-5-yl)ethyl]amino}methyl)-2H-1,2,3-benzotriazol-2-yl]butyl}biphenyl-2-yl)carbamate] | – | – | 0.19 | 6.6 |
| (3R)-1-azabicyclo[2.2.2]oct-3-yl(4-{4-[5-({[(2R)-2-hydroxy-2-(8-hydroxy-2-oxo-1,2-dihydroquinolin-5-yl)ethyl]amino}methyl)-1H-indol-1-yl]butyl}biphenyl-2-yl)carbamate dihydrofluoride [Example 15] | 0.32 | 15 | – | – |
| trans-4-aminocyclohexyl[4-(4-{[4-(2-{[(2R)-2-hydroxy-2-(8-hydroxy-2-oxo-1,2-dihydroquinolin-5-yl)ethyl]amino}propyl)phenyl]amino}-4-oxobutyl)biphenyl-2-yl]carbamate dihydrochloride [Example 45] | 1.3 | 4.7 | – | – |
| trans-4-aminocyclohexyl[4-(4-{[6-({[(2R)-2-hydroxy-2-(8-hydroxy-2-oxo-1,2-dihydroquinolin-5-yl)ethyl]amino}methyl)pyridin-3-yl]amino}-4-oxobutyl)-biphenyl-2-yl]carbamate dihydrochloride [Example 57] | 0.86 | 7.4 | – | – |
| 1-azabicyclo[2.2.2]oct-4-yl[4-(4-{[6-({[(2R)-2-hydroxy-2-(8-hydroxy-2-oxo-1,2-dihydroquinolin-5-yl)ethyl]amino}methyl)pyridin-3-yl]amino}-4-oxobutyl) biphenyl-2-yl]carbamate dihydrofluoride [Example 68] | 1.7 | 23 | – | – |
| trans-4-aminocyclohexyl(4-{5-[6-({[(2R)-2-hydroxy-2-(8-hydroxy-2-oxo-1,2-dihydroquinolin-5-yl)ethyl]amino}methyl)-2-oxo-1,3-benzoxazol-3(2H)-yl]pentyl}biphenyl-2-yl)carbamate dihydrofluoride [Example 29] | 1.1 | 19 | – | – |
| trans-4-aminocyclohexyl[4-(4-{[trans-4-({[(2R)-2-hydroxy-2-(8-hydroxy-2-oxo-1,2-dihydroquinolin-5-yl)ethyl]amino}methyl)cyclohexyl]amino}-4-oxobutyl)biphenyl-2-yl]carbamate dihydrochloride [Example 44] | 1.2 | 6.3 | – | – |
| (3R)-1-azabicyclo[2.2.2]oct-3-yl(5-{4-[4-(2-{[(2R)-2-hydroxy-2-(8-hydroxy-2-oxo-1,2-dihydroquinolin-5-yl)ethyl]amino}ethyl)phenoxy]butyl}biphenyl-2-yl)carbamate dihydrofluoride [Example 21] | 1.2 | 1.3 | – | – |
| COc1cc(C(=O)NCCCc2ccc(-c3ccccc3)c(NC(=O)O[C@H]3CC[C@H](N)CC3)c2)c(Cl)cc1CNC[C@H](O)c1ccc(O)c2[nH]c(=O)ccc12 (relative stereo) [Example 52, trans-4-aminocyclohexyl[4-(3-{[2-chloro-4-({[(2R)-2-hydroxy-2-(8-hydroxy-2-oxo-1,2-dihydroquinolin-5-yl)ethyl]amino}methyl)-5-methoxybenzoyl]amino}propyl)biphenyl-2-yl]carbamate] | 1.5 | 8.2 | – | – |
| (3R)-1-azabicyclo[2.2.2]oct-3-yl(4-{5-[6-({[(2R)-2-hydroxy-2-(8-hydroxy-2-oxo-1,2-dihydroquinolin-5-yl)ethyl]amino}methyl)-2-oxo-1,3-benzoxazol-3(2H)-yl]pentyl}biphenyl-2-yl)carbamate dihydrofluoride [Example 31] | 0.3 | 19 | – | – |
| N[C@H]1CC[C@H](OC(=O)Nc2cc(CCCCn3nnc4cc(CNC[C@H](O)c5ccc(O)c6[nH]c(=O)ccc56)ccc43)ccc2-c2ccccc2)CC1 (relative stereo) [Example 35, trans-4-aminocyclohexyl(4-{4-[5-({[(2R)-2-hydroxy-2-(8-hydroxy-2-oxo-1,2-dihydroquinolin-5-yl)ethyl]amino}methyl)-1H-1,2,3-benzotriazol-1-yl]butyl}biphenyl-2-yl)carbamate] | 0.33 | 16 | – | – |
| 1-azabicyclo[2.2.2]oct-4-yl(4-{3-[{[2-chloro-4-({[(2R)-2-hydroxy-2-(8-hydroxy-2-oxo-1,2-dihydroquinolin-5-yl)ethyl]amino}methyl)-5-methoxyphenoxy]acetyl}(methyl)amino]propyl}biphenyl-2-yl)carbamate dihydrofluoride [Example 66] | 0.99 | 9.6 | – | – |
| trans-4-aminocyclohexyl[4-(4-{[2-chloro-4-({[(2R)-2-hydroxy-2-(8-hydroxy-2-oxo-1,2-dihydroquinolin-5-yl)ethyl]amino}methyl)-5-methoxybenzoyl]amino}butyl)-biphenyl-2-yl]carbamate dihydrochloride [Example 60] | 0.37 | 4.9 | – | – |
| O=C(Nc1ccc(CCCCn2c(=O)oc3cc(CNC[C@H](O)c4ccc(O)c5[nH]c(=O)ccc45)ccc32)cc1-c1ccccc1)O[C@H]1CN2CCC1CC2 [Example 22, (3R)-1-azabicyclo[2.2.2]oct-3-yl(5-{4-[6-({[(2R)-2-hydroxy-2-(8-hydroxy-2-oxo-1,2-dihydroquinolin-5-yl)ethyl]amino}methyl)-2-oxo-1,3-benzoxazol-3(2H)-yl]butyl}biphenyl-2-yl)carbamate] | – | – | 1 | 8.5 |
